Ends that are not written are not given here.
Test system: subjects with bilateral patello-femoral knee osteoarthritis
Assay: Randomized double-blind placebo-controlled clinical study of TPX-100, safety and tolerability
Assay type: in vivo, human
[1] = intra-articular, four weekly doses, throughout the study period

In the case of TDLQERGDNDISPFSGDGQPFKD-NH2 [TPX-100], the Dose-limiting toxicities (Part A, 20, 50, 100 and 200 mg per intra-articular injection, four weekly injections) is reported as “no dose-limiting toxicities”, the “Severe adverse events related to the drug treatment” value [1] is reported as “no severe adverse events likely or possibly related to the drug treatment” and the “Severity of treatment-related adverse events” value [1] is reported as “mild or moderate, transient”. The “Safety and tolerability of the treatments” value (intra-articular, four weekly doses, throughout the study period (12 months)) was “safe and well tolerated”.

Source: patent US10849958B2, “Knee pain evaluation and management via WOMAC and KOOS systems” (ORTHOTROPHIX, INC., priority 2017, dated 2020)
